Columns and labels:
P. aeruginosa = experiment: Broth microdilution MIC at incremental pH, P. aeruginosa; type: cell-based
Protocol: MIC testing is conducted using the broth (Mueller Hinton Broth) microdilution procedures relevant to each organism group as established by the Clinical and Laboratory Standards Institute (CLSI; 3-7). MIC plates are prepared in accordance with CLSI (3-7). To prepare the test plates, automated liquid handlers are used to conduct serial dilutions and liquid transfers. Automated liquid handlers utilized in this study include the Multidrop 384 (Labsystems, Helsinki, Finland) and the Biomek 2000 (Beckman Coulter, Fullerton CA). The solution is diluted to desired pH using 1 M Citric Acid or 1 M NaOH buffer. A standardized inoculum of each test organism is prepared per CLSI methods (3, 5-7) to equal a 0.5 McFarland standard in the appropriate media followed by an additional 1:20 dilution (1:10 for anaerobes).
The plates are then inoculated with 10 μL of the diluted 0.5 McFarland suspension using the Biomek 2000 from low to high drug concentration, resulting in a final concentration of approximately 5×10^5 CFU/mL per well. An un-inoculated plate is incubated for the purpose of assessing solubility of the drug in the test media. The plates are stacked 3 to 4 high, covered with a sterile lid on the top plate, and incubated for 18 to 24 hours according to CLSI. The MIC is recorded as the lowest concentration of respective compound that inhibited visible growth of the organism.

[1] = system: wild type E. coli (ATCC 25922); experiment: Bacterial cytological profiling at pH 4, 5.5, 7 (Example 7), E. coli; type: cell-based; conditions: pH 5.5 and 7
Protocol: This bacterial cytological profiling (BCP) investigation uses methods and materials described previously by Nonejuie, P., Burkart, M., Poglianoa, K., Pogiano, J. (2013). Bacterial cytological profiling rapidly identifies the cellular pathways targeted by antibacterial molecules. Proc. Natl. Acad. Sci. U.S.A. 110(40):16169-16174. doi: 10.1073/pnas.1311066110.
For viable cell counts, cells are grown to OD600≈0.4 and diluted 1:1 into buffered or unbuffered media containing various compound concentrations. Samples are then collected and serially diluted (1:10) on a 96 well plate. Five microliters from each well are spotted on LB plates, incubated at 30° C., and viable cells are counted the next day.
Samples are collected at 10, 30, 120, and 240 min of exposure for viable cell count and imaging. For imaging, E. coli and S. aureus 200 μL of treated cells per time point are stained with 0.8 μg/mL FM4-64, 1.5 μg/mL DAPI, and 0.4 μM SYTOXGreen (Molecular Probes/Invitrogen). P. aeruginosa samples are stained 0.4 μM SYTOX Green, 28 μg/mL DAPI, and 1 μg/mL FM 4-64. Cells are transferred to an agarose pad (20% LB, 1% agarose) for imaging.
For Nu-3 and Nu-8 stocks (at pH 4, 5.5 and 7), stock concentration is 500 mg/mL. For pH 4, the stocks are prepared by dissolving Nu-3 in 25 mM citrate buffer and Nu-8 in 350 mM citric acid. […]

[2] = Body weight in the Acinetobacter baumannii lung infection model (Example 25); type: in vivo, BALB/c mice
[3] = Nu-8 (10%), 3 doses, once daily for 3 days
[4] = Nu-8 (10%), 5 doses, once daily for 5 days

CCCCOP(=O)(O)OC[C@H]1O[C@@H](n2ccc(N)nc2=O)C[C@@H]1OP(=O)(O)OCCCC [Nu-8, sodium ((2R,3S,5R)-5-(4-amino-2-oxopyrimidin-1(2H)-yl)-3-((butoxyoxidophosphor-yl)oxy)tetrahydrofuran-2-yl)methyl butyl phosphate]
MIC (P. aeruginosa; pH 1): 9.38 mg/mL | MIC (P. aeruginosa; pH 3): 18.75 mg/mL | MIC (P. aeruginosa; pH 4): 37.5 mg/mL | MIC (P. aeruginosa; pH 5): 75 mg/mL | MIC (P. aeruginosa; pH 7): >75 mg/mL | effect on cell permeability, cell viability and growth [1]: alters E. coli cell permeability and reduces cell viability and growth | Body Weight (g) Mean ± SD Day 0 [2, 3]: 25.0 ± 0.6 g | Body Weight (g) Mean ± SD Day 1 [2, 3]: 24.3 ± 0.5 g | Body Weight (g) Mean ± SD Day 3 [2, 3]: 23.7 ± 0.5 g | Body Weight (g) Mean ± SD Day 0 [2, 4]: 24.8 ± 0.8 g | Body Weight (g) Mean ± SD Day 1 [2, 4]: 24.0 ± 0.6 g | Body Weight (g) Mean ± SD Day 2 ([2]; Nu-8 (10%), 5 doses, once daily for 5 days, Day 2): 23.3 ± 0.5 g | Body Weight (g) Mean ± SD Day 3 [2, 4]: 23.2 ± 0.8 g | Body Weight (g) Mean ± SD Day 4 ([2]; Nu-8 (10%), 5 doses, once daily for 5 days, Day 4): 23.3 ± 1.0 g | Body Weight (g) Mean ± SD Day 5 ([2]; Nu-8 (10%), 5 doses, once daily for 5 days, Day 5): 24.0 ± 0.6 g | Body Weight (g) Mean ± SD Day 0 ([2]; Nu-8 (10%), single dose): 24.8 ± 0.8 g | Body Weight (g) Mean ± SD Day 1 ([2]; Nu-8 (10%), single dose): 24.0 ± 0.9 g | change in mean body weights ([2]; vehicle and treatment groups): Decreases in mean body weights were observed

Source: patent US12030908B2, “Antimicrobial compounds, compositions, and uses thereof” (Lakewood Amedex, Inc., priority 2017, dated 2024)
